From US20060173064A1, “(-)-1-(3,4-Dichlorophenyl)-3-azabi cyclo[3.1.0]hexane, compositions thereof, and uses for treating alcohol-related disorders” (priority 2001, published 2006)
Marks after values point to notes of the source that are not given here.

Key:
[1] = target: norepinephrine transporter (norepinephrine uptake site), rat forebrain membranes (Rattus norvegicus, UniProt Q63380); details: Table 2; hydrochloride
Experimental: The norepinephrine transporter binding assay was performed according to the methods described in Raisman et al., 1982, Eur. J. Pharmacol. 78:345-351 and Langer et al., 1981, Eur. J. Pharmacol. 72:423. […] Reactions were carried out in 50 mM TRIS-HCI (pH 7.4), containing 300 mM NaCl and 50 mM KCl and at 0° C. to 4° C. for four hours. The reaction was terminated by rapid vacuum filtration onto glass fiber filters. Radioactivity trapped in the filters was determined and compared to control values in order to ascertain the interactions of the test compound with the norepinephrine uptake site.

[2] = target: T1, serotonin transporter (serotonin uptake site), human platelet membranes (Homo sapiens, UniProt P31645); experiment: Serotonin transporter binding assay ([3H]citalopram); details: summary of Table 3; hydrochloride
T1 construct: The receptor source was human platelet membranes; from tissue; host or cells: human platelets (membranes)
Experimental: Reactions were carried out in 50 mM TRIS-HCl (pH 7.4), containing 120 mM NaCl and 5 mM KCl and at 25° C. for one hour. The reaction was terminated by rapid vacuum filtration onto glass fiber filters. Radioactivity trapped in the filters was determined and compared to control values in order to ascertain the interactions of the test compound with the serotonin uptake site.

[3] = target: hSERT (recombinant human serotonin transporter) (Homo sapiens, UniProt P31645); experiment: Inhibition of [3H]5-HT uptake in HEK-hSERT cells; details: (−)-enantiomer versus the racemate
[4] = target: T2, dopamine transporter (dopamine uptake site), guinea pig striatal membranes (Cavia porcellus, UniProt H0WCX4); experiment: Dopamine transporter binding assay ([3H]WIN 35,428); details: summary of Table 1
T2 construct: The receptor source was guinea pig striatal membranes; from tissue; host or cells: guinea pig striatum (membranes)
Experimental: The dopamine uptake transporter binding assay was performed according to the methods described in Madras et al., 1989, Mol. Pharmacol. 36(4):518-524 and Javitch et al., 1984, Mol. Pharmacol. 26(1):35-44. […] Reactions were carried out in 50 mM TRIS-HCI (pH 7.4), containing 120 mM NaCl and at 0° C. to 4° C. for two hours. The reaction was terminated by rapid vacuum filtration onto glass fiber filters. Radioactivity trapped in the filters was determined and compared to control values in order to ascertain the interactions of the test compound with the dopamine uptake site.

[5] = system: male mHEP rat; experiment: Volitional consumption of ethanol in the HEP (high ethanol preferring) rat; format: in vivo; details: for Ethanol Consumption, Mean ± s.e.m., pre-: three-day pre-treatment period (baseline); for Ethanol Consumption, Mean ± s.e.m., pre- / Ethanol Consumption, Mean ± s.e.m., during / Ethanol Consumption, Mean ± s.e.m., post-: male mHEP rat; for Ethanol Consumption, Mean ± s.e.m., during: during three days of injections; for Ethanol Consumption, Mean ± s.e.m., post-: three-day post-treatment period
Experimental: (§1) The study described here was performed using procedures modified from previous reports (Myers R D et al., Genetics of alcoholism: Rapid development of a new high ethanol preferring (HEP) strain of female and male rats, Alcohol 16:343-357, 1998; […] et al., Effects of NMDA glutamate receptor antagonist drugs on the consumption of ethanol by a genetic drinking rat, Brain Res. Bull 64:279-284, 2004). Briefly, subject male rats were taken from the selectively bred Myers' high ethanol preferring (MHEP) line (Myers et al., Alcohol 16:343-357, 1998), which drink copious amounts of ethanol, even in the presence of palatable alternatives. These rats were subjected to an ethanol preference selection protocol, 3% to 30% during a 10-day “step up” procedure that ensures the maximum amount of drinking at each rat's desired ethanol concentration, with the proportion of ethanol to total fluid consumption of approximately 50%. After the rats were selected and drinking a fixed concentration of ethanol, they were subjected to a three-day baseline ethanol consumption period. This was followed by a three-day period of test drug administration (IP), then a three-day post-treatment period. During this entire study, the following parameters were measured on a daily basis: volume of water consumed; volume of ethanol solution consumed; weight of food consumed; and rat body weight. […] Doses were calculated as the free base form of each drug. Once drinking stabilized to baseline levels post-treatment, a different dose of drug was administered. […] The order of drug doses or vehicle (0.9% saline) was set up in a counter-balanced design. The data were averaged for each period for each rat then grouped and analyzed by one-way repeated measures ANOVA and Tukey's post-hoc analysis.

[6] = Body weight of the mHEP rat in the ethanol study; format: in vivo; details: for Bodyweight, Mean ± s.e.m., pre-: three-day pre-treatment period (baseline); for Bodyweight, Mean ± s.e.m., pre- / Bodyweight, Mean ± s.e.m., during / Bodyweight, Mean ± s.e.m., post-: male mHEP rat; for Bodyweight, Mean ± s.e.m., during: during three days of injections; for Bodyweight, Mean ± s.e.m., post-: three-day post-treatment period
Experimental: as §1

T1 sequence (P31645 whole entry): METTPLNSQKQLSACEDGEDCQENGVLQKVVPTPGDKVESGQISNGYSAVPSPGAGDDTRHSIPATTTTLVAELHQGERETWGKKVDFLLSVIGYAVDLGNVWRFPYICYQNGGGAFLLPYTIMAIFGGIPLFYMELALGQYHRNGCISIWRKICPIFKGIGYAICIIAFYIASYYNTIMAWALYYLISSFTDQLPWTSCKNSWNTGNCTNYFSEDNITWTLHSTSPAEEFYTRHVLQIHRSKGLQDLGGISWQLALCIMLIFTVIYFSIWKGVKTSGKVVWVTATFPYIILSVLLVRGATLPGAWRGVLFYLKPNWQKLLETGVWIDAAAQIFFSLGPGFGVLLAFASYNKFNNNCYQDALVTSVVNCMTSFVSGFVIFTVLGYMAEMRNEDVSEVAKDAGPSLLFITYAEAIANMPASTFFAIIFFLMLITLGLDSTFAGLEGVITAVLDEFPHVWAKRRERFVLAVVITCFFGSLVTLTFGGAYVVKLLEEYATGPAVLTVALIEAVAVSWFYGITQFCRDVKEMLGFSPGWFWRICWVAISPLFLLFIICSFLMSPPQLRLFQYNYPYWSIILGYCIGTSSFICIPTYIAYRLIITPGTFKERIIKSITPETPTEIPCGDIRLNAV
T2 sequence (H0WCX4 1-619): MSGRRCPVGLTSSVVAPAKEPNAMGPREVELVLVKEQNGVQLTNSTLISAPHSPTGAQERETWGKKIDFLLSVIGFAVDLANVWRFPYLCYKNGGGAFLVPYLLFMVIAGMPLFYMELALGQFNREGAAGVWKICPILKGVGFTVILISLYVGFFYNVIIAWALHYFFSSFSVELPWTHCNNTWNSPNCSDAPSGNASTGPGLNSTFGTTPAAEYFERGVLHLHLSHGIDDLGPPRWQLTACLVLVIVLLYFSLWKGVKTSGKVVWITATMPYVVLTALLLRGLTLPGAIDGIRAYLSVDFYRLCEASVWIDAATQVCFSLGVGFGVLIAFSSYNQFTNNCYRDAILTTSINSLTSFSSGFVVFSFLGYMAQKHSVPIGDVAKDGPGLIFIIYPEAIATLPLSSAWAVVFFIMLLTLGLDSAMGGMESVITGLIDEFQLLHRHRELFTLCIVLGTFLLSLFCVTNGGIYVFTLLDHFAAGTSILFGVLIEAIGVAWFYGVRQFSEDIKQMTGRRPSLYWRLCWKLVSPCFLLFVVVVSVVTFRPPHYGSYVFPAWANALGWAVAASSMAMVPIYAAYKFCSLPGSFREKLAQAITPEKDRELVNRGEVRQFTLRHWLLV
Chain of norepinephrine transporter (norepinephrine uptake site), rat forebrain membranes (Q63380 1-617): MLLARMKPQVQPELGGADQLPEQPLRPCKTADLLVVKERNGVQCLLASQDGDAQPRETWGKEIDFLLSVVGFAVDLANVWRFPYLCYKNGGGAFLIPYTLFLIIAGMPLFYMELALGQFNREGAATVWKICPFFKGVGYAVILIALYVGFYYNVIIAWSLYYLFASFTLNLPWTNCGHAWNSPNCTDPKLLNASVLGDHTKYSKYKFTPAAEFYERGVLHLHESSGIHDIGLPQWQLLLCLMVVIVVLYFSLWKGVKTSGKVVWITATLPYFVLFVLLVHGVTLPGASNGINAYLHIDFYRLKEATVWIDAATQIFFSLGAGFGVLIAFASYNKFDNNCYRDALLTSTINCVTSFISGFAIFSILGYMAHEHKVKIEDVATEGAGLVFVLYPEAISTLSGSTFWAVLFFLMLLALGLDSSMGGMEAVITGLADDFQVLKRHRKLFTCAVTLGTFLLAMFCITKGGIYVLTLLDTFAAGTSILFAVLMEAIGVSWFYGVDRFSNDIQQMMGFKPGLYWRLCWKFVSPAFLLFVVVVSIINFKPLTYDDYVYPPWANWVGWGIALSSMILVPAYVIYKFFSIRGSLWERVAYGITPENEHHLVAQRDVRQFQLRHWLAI
Chain of hSERT (recombinant human serotonin transporter) (P31645 whole entry): as the sequence (P31645 whole entry) above

With Cl.Clc1ccc([C@@]23CNC[C@@H]2C3)cc1Cl (single isomer, unassigned) [(+)-1-(3,4-dichlorophenyl)-3-azabicyclo[3.1.0]hexane HCl] [(+)-1-(3,4-dichlorophenyl)-3-azabicyclo[3.1.0]hexane hydrochloride, reference compound] the “affinity for the norepinephrine uptake site (in words)” value [1] was “has affinity” and the “affinity for the serotonin uptake site (in words)” value [2] was “has affinity”.
In the case of Cl.Clc1ccc([C@@]23CNC[C@@H]2C3)cc1Cl (single isomer, unassigned) [(−)-1-(3,4-dichlorophenyl)-3-azabicyclo[3.1.0]hexane HCl] [(−)-1-(3,4-dichlorophenyl)-3-azabicyclo[3.1.0]hexane hydrochloride], the “affinity for the norepinephrine uptake site (in words)” value [1] is reported as “no measurable affinity”, the “affinity for the serotonin uptake site (in words)” value [2] is reported as “no measurable affinity” and the “difference in affinity, uptake at the serotonin transporter” value [3] is reported as 9.6 fold.
For Cl.Clc1ccc([C@@]23CNC[C@@H]2C3)cc1Cl (single isomer, unassigned) [(−)-1-(3,4-dichlorophenyl)-3-azabicyclo[3.1.0]hexane hydrochloride], the “affinity for the dopamine uptake site (in words)” value [4] was “have affinity”, the “Ethanol Consumption, Mean ± s.e.m., pre-” value ([5]; 2.5 mg/kg b.i.d. IP group) was 5.39 ± 0.89 g ethanol/kg/day and the “Ethanol Consumption, Mean ± s.e.m., during” value ([5]; 2.5 mg/kg b.i.d. IP) was 4.32 ± 0.69 g ethanol/kg/day. For the same molecule, the “Ethanol Consumption, Mean ± s.e.m., post-” value ([5]; 2.5 mg/kg b.i.d. IP) was 5.79 ± 0.86^a g ethanol/kg/day, the “Ethanol Consumption, Mean ± s.e.m., pre-” value ([5]; 5.0 mg/kg b.i.d. IP group) was 6.00 ± 0.59 g ethanol/kg/day and the “Ethanol Consumption, Mean ± s.e.m., during” value ([5]; 5.0 mg/kg b.i.d. IP) was 4.33 ± 0.62 g ethanol/kg/day. For the same molecule, the “Ethanol Consumption, Mean ± s.e.m., post-” value ([5]; 5.0 mg/kg b.i.d. IP) was 5.66 ± 0.64 g ethanol/kg/day, the “Ethanol Consumption, Mean ± s.e.m., pre-” value ([5]; 10.0 mg/kg b.i.d. IP group) was 6.77 ± 0.51 g ethanol/kg/day and the “Ethanol Consumption, Mean ± s.e.m., during” value ([5]; 10.0 mg/kg b.i.d. IP) was 3.50 ± 0.45 g ethanol/kg/day. The “Ethanol Consumption, Mean ± s.e.m., post-” value ([5]; 10.0 mg/kg b.i.d. IP) was 4.15 ± 0.61 g ethanol/kg/day, the “effect on ethanol consumption during the post-treatment period (in words)” value ([5]; 10 mg/kg b.i.d., post-treatment period) was “significant carry over effect” and the “Ethanol Consumption, Mean ± s.e.m., pre-” value ([5]; 20.0 mg/kg b.i.d. IP group) was 5.26 ± 0.49 g ethanol/kg/day. For the same molecule, the “Ethanol Consumption, Mean ± s.e.m., during” value ([5]; 20.0 mg/kg b.i.d. IP) was 1.80 ± 0.28 g ethanol/kg/day, the “Ethanol Consumption, Mean ± s.e.m., post-” value ([5]; 20.0 mg/kg b.i.d. IP) was 2.89 ± 0.45 g ethanol/kg/day and the “decrease in the proportion of alcohol consumed (volume of ethanol / total volume of ethanol solution and water)” value ([5]; 20 mg/kg b.i.d., after treatment) was 41%. For the same molecule, the “decrease in the proportion of alcohol consumed (volume of ethanol / total volume of ethanol solution and water)” value ([5]; 20 mg/kg b.i.d., during treatment) was 62.3%, the “ethanol consumption depressed compared to the pre-treatment period” value ([5]; 20 mg/kg b.i.d., post-treatment period) was 55.1% and the “decrease in ethanol consumption compared to the pre-treatment period” value ([5]; 20 mg/kg b.i.d., treatment period) was 65.8%. For the same molecule, the “amount of ethanol consumed (in words)” value ([5]; across doses, mHEP rat) was “strong dose-dependent decrease in consumption”, the “volitional consumption of ethanol (in words)” value ([5]; dose range of 5.0 to 20 mg/kg b.i.d.) was “significantly reduced” and the “proportion of ethanol consumed (in words)” value ([5]; mHEP rat) was “strong decrease”. For the same molecule, the “Bodyweight, Mean ± s.e.m., pre-” value ([6]; 2.5 mg/kg b.i.d. IP group) was 0.369 ± 0.019 kg, the “Bodyweight, Mean ± s.e.m., during” value ([6]; 2.5 mg/kg b.i.d. IP) was 0.372 ± 0.019 kg and the “Bodyweight, Mean ± s.e.m., post-” value ([6]; 2.5 mg/kg b.i.d. IP) was 0.373 ± 0.019 kg. For the same molecule, the “Bodyweight, Mean ± s.e.m., pre-” value ([6]; 5.0 mg/kg b.i.d. IP group) was 0.392 ± 0.009 kg, the “Bodyweight, Mean ± s.e.m., during” value ([6]; 5.0 mg/kg b.i.d. IP) was 0.394 ± 0.009 kg and the “Bodyweight, Mean ± s.e.m., post-” value ([6]; 5.0 mg/kg b.i.d. IP) was 0.394 ± 0.007 kg. For the same molecule, the “Bodyweight, Mean ± s.e.m., pre-” value ([6]; 10.0 mg/kg b.i.d. IP group) was 0.381 ± 0.028 kg, the “Bodyweight, Mean ± s.e.m., during” value ([6]; 10.0 mg/kg b.i.d. IP) was 0.381 ± 0.028 kg and the “Bodyweight, Mean ± s.e.m., post-” value ([6]; 10.0 mg/kg b.i.d. IP) was 0.382 ± 0.028 kg. For the same molecule, the “Bodyweight, Mean ± s.e.m., pre-” value ([6]; 20.0 mg/kg b.i.d. IP group) was 0.421 ± 0.015 kg, the “Bodyweight, Mean ± s.e.m., during” value ([6]; 20.0 mg/kg b.i.d. IP) was 0.423 ± 0.015 kg and the “Bodyweight, Mean ± s.e.m., post-” value ([6]; 20.0 mg/kg b.i.d. IP) was 0.418 ± 0.015^a kg. The “body weight (in words)” value ([6]; treated rats, as expected for rats of this age) was “small increases in body weight”.
For Cl.Clc1ccc([C@@]23CNC[C@@H]2C3)cc1Cl (single isomer, unassigned) [(+)-1-(3,4-dichlorophenyl)-3-azabicyclo[3.1.0]hexane hydrochloride, reference compound], the “affinity for the dopamine uptake site (in words)” value [4] was “have affinity”.
